The record followed here is patent US9206186B2, “2-phenoxy- and 2-phenylsulfonamide derivatives with CCR3 antagonistic activity for the treatment of inflammatory or immunological disorders” (AXIKIN PHARMACEUTICALS, INC., priority 2003, dated 2015).

Molecules are shown by their SMILES. Where a name gives a salt, the structure may show the parent alone.

The target of one series is T1, Human CCR3 (Homo sapiens, UniProt P51677).
T1 construct: The cloned CCR3 cDNA was constructed with pcDNA3 vector and transfected into a K562 cell line; expressed in transfected cells
T1 sequence (P51677 1-355): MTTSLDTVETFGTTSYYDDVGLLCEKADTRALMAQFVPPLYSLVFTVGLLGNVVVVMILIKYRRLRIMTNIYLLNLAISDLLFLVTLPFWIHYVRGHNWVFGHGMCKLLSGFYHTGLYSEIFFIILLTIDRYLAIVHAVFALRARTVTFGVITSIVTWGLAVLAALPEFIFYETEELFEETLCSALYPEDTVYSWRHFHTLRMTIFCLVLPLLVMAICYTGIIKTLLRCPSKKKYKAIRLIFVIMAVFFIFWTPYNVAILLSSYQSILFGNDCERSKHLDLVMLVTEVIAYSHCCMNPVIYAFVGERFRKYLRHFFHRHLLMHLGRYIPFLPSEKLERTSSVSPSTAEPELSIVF
In words: Receptor binding assay (RBA), [125I]-eotaxin on human CCR3-transformed K562 cells. To be noted: compounds of about 40 to 90% purity, read-out: Activity grade CCR3. The protocol:
[Determination of IC50 Values of Compounds in Receptor Binding Assay]
• Human CCR3-transformed K562 cells were used. The cloned CCR3 cDNA was constructed with pcDNA3 vector and transfected into a K562 cell line. The human CCR3-transformed K562 cells were maintained in RPMI-1640 (Cat.#22400-089, Life Technologies) supplemented with 10% FCS (Cat.#A-1115-L, Hyclone), 55 μM 2-mercaptoethanol (Cat.#21985-023, Life Technologies), 1 mM sodium pyruvate (Cat.#11360-070, Life Technologies), 100 units/ml of penicillin G and 100 μg/ml of streptomycin (Cat.#15140-122, Life Technologies), and 0.4 mg/ml of Geneticin (Cat.#10131-035, Life Technologies) (hereinafter called “culture medium”). Before the receptor binding assay, cells were pretreated with 5 mM sodium butyrate (Cat.#193-01522, Wako)-containing the culture medium (2×10^5 cells/ml) for 20-24 hours to increase the expression of CCR3. (2) Receptor Binding Assay • Butyrate-pretreated cells, suspended in binding buffer (25 mM HEPES pH 7.6, 1 mM CaCl2, 5 mM MgCl2, 0.5% BSA, 0.1% NaN3) at a cell density of 2×10^6 cells/ml, were added into 60 μl/well in the 96-well round bottom polypropylene plate (Cat.#3365, Costar). Compounds, diluted with the binding buffer (4-times higher concentration of the final concentration), were added into 30 μl/well in the polypropylene plate. [^125I]-labeled human eotaxin (Cat.#IM290, Amersham Pharmacia Biotech), diluted with the binding buffer at the concentration of 0.4 nM (final concentration; 0.1 nM), was added into 30 μl/well in the polypropylene plate. Total 120 μl/well of binding reaction mixture (60 μl/well of cell suspension, 30 μl/well of compound solution, and 30 μl/well of [^125I]-labeled eotaxin) were incubated in the polypropylene plate for 1 hour at room temperature after the incubation, 100 μl/well of the reaction mixture was transferred to a filtration plate (Cat.#MAFB-N0B, Millipore), and washed with the washing buffer (25 mM HEPES pH 7.6, 1 mM CaCl2, 5 mM MgCl2, 0.5% BSA, 0.1% NaN3, 0.5 M NaCl) twice. The 96-well filtration plate was pretreated with 100 μl/well of 0.5% polyethylenimine (Cat.#P-3143, Sigma) for 2-4 hours at room temperature and washed with the washing buffer twice before use. The non-specific binding was determined by parallel incubation in the presence of 500 nM of non-labeled eotaxin (Cat.#23209, Genzyme Techne). The radioactivities remained on the filter were measured by liquid scintillation counter (TopCount™, Packard) after an addition of 45 μl/well of scintillant (Microscint20, Cat.#6013621, Packard). The inhibition percent at each concentration of compound was calculated, and IC50 values were determined from the inhibition curve. [Determination of IC50 Values of Compounds in Calcium Mobilization Assay] (1) Cell • Human CCR3-transformed K562 cells were used. The human CCR3-transformed K562 cells were maintained in RPMI-1640 supplemented with 10% FCS, 55 μM 2-mercaptoethanol (Cat.#21985-023, Life Technologies), 1 mM sodium pyruvate, 100 units/ml of penicillin G and 100 μg/ml of streptomycin, and 0.4 mg/ml of Geneticin. Before the calcium mobilization assay, cells were pretreated with 5 mM sodium butyrate-containing the culture medium (2×10^5 cells/ml) for 20-24 hours to increase the expression of CCR3. (2) Calcium Mobilization Assay • Butyrate-pretreated cells were loaded with Fluo-3AM (Cat.#F-1242, Molecular Probes) in loading buffer (Hanks' solution Cat.#05906 Nissui, 20 mM HEPES pH 7.6, 0.1% BSA, 1 mM probenecid Cat.#P-8761 Sigma, 1 μM Fluo-3AM, 0.01% pluronic F-127 Cat.#P-6866 Molecular Probes) at a cell density of 1×10^7 cells/ml. Then, cells were washed with calcium assay buffer (Hanks' solution Cat.#05906 Nissui, 20 mM HEPES pH 7.6, 0.1% BSA, 1 mM Probenecid Cat.#P-8761 Sigma). The cell suspension (3.3×10^6 cells/ml) was added into 60 μl/well in the 96-well clear bottom black plate (Cat.#3904, Costar). […]

Take `N#Cc1ccc(Oc2cc(Cl)cc(Cl)c2)c(S(=O)(=O)N[C@H]2CN3CCC2CC3)c1` [Example 1-1, N—(R)-(+)-(1-aza-bicyclo[2.2.2]oct-3-yl)-5-cyano-2-(3,5-dichloro-phenoxy)-benzenesulfonamide]: at Human CCR3, the IC50 is less than 100 nM.

With `CN(C)CCN(CCN1C(=O)CCC1=O)S(=O)(=O)c1cc(C#N)ccc1Oc1cc(Cl)cc(Cl)c1` [Example 1-2, 5-cyano-2-(3,5-dichloro-phenoxy)-N-(2-dimethylamino-ethyl)-N-[2-(2,5-dioxo-pyrrolidin-1-yl)-ethyl]-benzenesulfonamide], the IC50 at Human CCR3 was less than 100 nM.

`N#Cc1ccc(Oc2cc(Cl)cc(Cl)c2)c(S(=O)(=O)N2CCN[C@@H](Cc3c[nH]c4ccccc34)C2)c1` [Example 1-3, 4-(3,5-dichloro-phenoxy)-3-[(3S)-(1H-indol-3-ylmethyl)-piperazine-1-sulfonyl]-benzonitrile]: on Human CCR3, the IC50 was less than 100 nM.

As to `N#Cc1ccc(Oc2cc(Cl)cc(Cl)c2)c(S(=O)(=O)N2CCNCC2Cn2cncn2)c1` (stereo not shown) [Example 1-4, 4-(3,5-dichlorophenoxy)-3-{[2-(1H-1,2,4-triazol-1-ylmethyl)-1-piperazinyl]sulfonyl}benzonitrile hydrochloride], the IC50 on Human CCR3 was less than 100 nM.

By melting point is commonly meant the temperature of the solid-liquid transition. `N#Cc1ccc(Oc2cc(Cl)cc(Cl)c2)c(S(=O)(=O)N2CCCCC2)c1` [Example 1-5] registered a melting point of 171 to 172 °C. The IC50 on Human CCR3 was greater than 500 nM.

With `N#Cc1ccc(Oc2cc(Cl)cc(Cl)c2)c(S(=O)(=O)N2CC3CCN(Cc4ccccc4)C3C2)c1` (stereo not shown) [Example 1-6], the IC50 at Human CCR3 is less than 100 nM.

In the case of `CS(=O)(=O)NCC1CN(S(=O)(=O)c2cc(C#N)ccc2Oc2cc(Cl)cc(Cl)c2)CCN1` (stereo not shown) [Example 1-7], the IC50 on Human CCR3 is less than 100 nM.

Take `CC(=O)NCC1CN(S(=O)(=O)c2cc(C#N)ccc2Oc2cc(Cl)cc(Cl)c2)CCN1` (stereo not shown) [Example 1-8]: the IC50 at Human CCR3 was less than 100 nM.

Take `CS(=O)(=O)NCC1CNCCN1S(=O)(=O)c1cc(C#N)ccc1Oc1cc(Cl)cc(Cl)c1` (stereo not shown) [Example 1-9]: on Human CCR3, the IC50 was less than 100 nM.

On to `CC(=O)NCC1CNCCN1S(=O)(=O)c1cc(C#N)ccc1Oc1cc(Cl)cc(Cl)c1` (stereo not shown) [Example 1-10], for which the IC50 at Human CCR3 was less than 100 nM.

As to `N#Cc1ccc(Oc2cc(Cl)cc(Cl)c2)c(S(=O)(=O)N2CCC(N3C[C@H](O)[C@@H](O)C3)CC2)c1` [Example 1-11], the melting point lay in the range of 137 to 139 °C. The IC50 at Human CCR3 lay in the range of 100 to 500 nM.

With `COC(=O)C1CN(S(=O)(=O)c2cc(C#N)ccc2Oc2cc(Cl)cc(Cl)c2)CCCN1` (stereo not shown) [Example 1-12], the IC50 at Human CCR3 fell in the range of 100 to 500 nM.

Turning to `COC(=O)[C@@H]1C[C@H](N2CCCC2)CN1S(=O)(=O)c1cc(C#N)ccc1Oc1cc(Cl)cc(Cl)c1` [Example 1-13], the IC50 at Human CCR3 lay within 100 to 500 nM.

Regarding `N#Cc1ccc(Oc2cc(Cl)cc(Cl)c2)c(S(=O)(=O)N2CC[C@H](NCCO)C2)c1` [Example 1-16], the melting point was in the range of 155 to 156 °C. Also, the IC50 on Human CCR3 was less than 100 nM.

Regarding `COC(=O)C1CNCCCN1S(=O)(=O)c1cc(C#N)ccc1Oc1cc(Cl)cc(Cl)c1` (stereo not shown) [Example 1-22], the IC50 on Human CCR3 was less than 100 nM.

The compound `N#Cc1ccc(Oc2cc(Cl)cc(Cl)c2)c(S(=O)(=O)N2CCNC[C@@H]2Cc2c[nH]c3ccccc23)c1` [Example 1-26] displayed a melting point of 116 to 117 °C. The IC50 on Human CCR3 is less than 100 nM.

Take `N#Cc1ccc(Oc2cc(Cl)cc(Cl)c2)c(S(=O)(=O)N2CCNCC2CN2C(=O)CCC2=O)c1` (stereo not shown) [Example 1-27]: the IC50 on Human CCR3 is less than 100 nM.

On to `CS(=O)(=O)NCC1CN(S(=O)(=O)c2cc(C#N)ccc2Oc2cc(Cl)cc(Cl)c2)CCCN1` (stereo not shown) [Example 1-28], for which the IC50 on Human CCR3 was less than 100 nM.

`CS(=O)(=O)NCC1CNCCCN1S(=O)(=O)c1cc(C#N)ccc1Oc1cc(Cl)cc(Cl)c1.Cl` (stereo not shown) [Example 1-29] registered a melting point of 183 to 184 °C. In addition, the IC50 at Human CCR3 is less than 100 nM.

Turning to `CC(=O)c1ccc(Oc2cc(Cl)cc(Cl)c2)c(S(=O)(=O)N2CCNCC2)c1` [Example 1-31], the melting point was in the range of 169 to 170 °C. Also, at Human CCR3, the IC50 is less than 100 nM.

As to `N#Cc1ccc(Oc2cc(Cl)cc(Cl)c2)c(S(=O)(=O)N[C@@H]2CN3CCC2CC3)c1` [Example 1-32], on Human CCR3, the IC50 is less than 100 nM.

The compound `N#Cc1ccc(Oc2cc(Cl)cc(Cl)c2)c(S(=O)(=O)N2CCC(N3CCC[C@H]3C(=O)O)CC2)c1` [Example 1-33] gave a melting point of 224 to 225 °C. Moreover, the IC50 on Human CCR3 was less than 100 nM.

Consider `CC(C)(O)[C@@H]1CCCN1C1CCN(S(=O)(=O)c2cc(C#N)ccc2Oc2cc(Cl)cc(Cl)c2)CC1` [Example 1-34], for which the melting point is 103 °C. The IC50 at Human CCR3 is less than 100 nM.

In the case of `N#Cc1ccc(Oc2cc(Cl)cc(Cl)c2)c(S(=O)(=O)N2CCCCC2CN2CCC(O)C2)c1` (stereo not shown) [Example 1-35], the IC50 on Human CCR3 lay within 100 to 500 nM.

Take `N#Cc1ccc(Oc2cc(Cl)cc(Cl)c2)c(S(=O)(=O)N2CCNC(Cn3ncnn3)C2)c1` (stereo not shown) [Example 1-36]: on Human CCR3, the IC50 was less than 100 nM.

On to `Cl.N#Cc1ccc(Oc2cc(Cl)cc(Cl)c2)c(S(=O)(=O)N2CCNC(Cn3cncn3)C2)c1` (stereo not shown) [Example 1-37], for which the melting point was 184 to 185 °C (dec.). The IC50 at Human CCR3 was less than 100 nM.

As to `CCN1CCCN(S(=O)(=O)c2cc(C#N)ccc2Oc2cc(Cl)cc(Cl)c2)C(C(=O)OC)C1` (stereo not shown) [Example 1-39], the IC50 at Human CCR3 was 100 to 500 nM.

Turning to `N#Cc1ccc(Oc2cc(Cl)cc(Cl)c2)c(S(=O)(=O)N(CCN2CCCC2)C2CCCC2)c1` [Example 1-42], at Human CCR3, the IC50 is 100 to 500 nM.

Regarding `N#Cc1ccc(Oc2cc(Cl)cc(Cl)c2)c(S(=O)(=O)N2CCNC(CN3C(=O)CCC3=O)C2)c1` (stereo not shown) [Example 1-43], the melting point is 123 to 125 °C. Besides, the IC50 at Human CCR3 is less than 100 nM.

On to `N#Cc1ccc(Oc2cc(Cl)cc(Cl)c2)c(S(=O)(=O)N2CCC(N3CCCC3)C(CN3C(=O)CCC3=O)C2)c1` (stereo not shown) [Example 1-44], for which the melting point was 121 °C. Further, the IC50 at Human CCR3 was less than 100 nM.

`N#Cc1ccc(Oc2cc(Cl)cc(Cl)c2)c(S(=O)(=O)N2CCC(N3CCC[C@H]3CO)CC2)c1` [Example 1-45] returned a melting point of 124 °C. Further, on Human CCR3, the IC50 was less than 100 nM.

As to `N#Cc1ccc(Oc2cc(Cl)cc(Cl)c2)c(S(=O)(=O)N2CCC[C@H]2CN2CCC[C@H]2CO)c1` [Example 1-46], the melting point was 157 °C. For the same compound, the IC50 on Human CCR3 was less than 100 nM.

With `N#Cc1ccc(Oc2cc(Cl)cc(Cl)c2)c(S(=O)(=O)C2CCNCC2)c1` [Example 2-1, 4-(3,5-Dichloro-phenoxy)-3-(piperidine-4-sulfonyl)-benzonitrile], at Human CCR3, the IC50 was greater than 500 nM.
